Source: patent US20110117081A1, “FUNCTIONALIZED PYRROLIDINES AND USE THEREOF AS IAP INHIBITORS” (priority 2008, published 2011)

Experiments:
[1] = test system: Colorectal carcinoma HCT116 cells; test: HCT116 + ETR1 cell viability assay (MTT); type: cell-based; settings: with ETR1 (40 ng/ml), 72 hrs
Procedure: Colorectal carcinoma HCT116 cells (ATCC# CCL-247) were cultured as monolayers in 96 well plates at a density of 2000 cells per well in 100 ul of McCoy's 5a medium (HyClone) supplemented with 2.2 g/L sodium bicarbonate (Gibco), 10% FBS (HyClone) and 1% penecillin/streptomycin (HyClone) for 24 hours. Triplicate wells of cells were treated for 72 hrs at 37° C. (5% CO2) with 50 ul of HGS agonistic Trail receptor antibody, ETR1 (40 ng/ml) in combination with 50 ul of diluted compound (0.01 to 10000 nM). Metabolic viability of remaining cells was assessed by MTT assay.
(§1) The percentage viability of compound-treated cells was expressed as a fraction of the absorbance/luminescence signal obtained from non-treated cells. EC50 values (corresponding to 50% cell survival in the presence of compound as compared to untreated controls) were calculated from MTT survival curves (HCT116 and SKOV3) using BioAssay software (CambridgeSoft) and from Cell Titer-Glo survival curves (synovioycte and Jurkat cells) using GraphPad Prism (Graph Pad Software Inc.). In the below chart, EC50 values are summarized as follows: a=EC50 of less than 10 nM; b=EC50 of 10-100 nM; and c=EC50 of greater than 100 nM.

[2] = test system: Ovarian adenocarcinoma SKOV3 cells; test: SKOV3 cell viability assay (MTT); type: cell-based; settings: Homo sapiens, SK-OV-3, 72 hours
Procedure: Ovarian adenocarcinoma SKOV3 cells (ATCC# HTB-77) were cultured as monolayers in McCoy's 5a medium (HyClone) supplemented with 2.2 g/L sodium bicarbonate (Gibco), 10% FBS (HyClone) and 1% penicillin/streptomycin (HyClone). Cells were seeded in tissue culture-treated 96 well plates at 5000 cells/well in 150 ul of media. After 24 hours, triplicate wells of cells were treated with various concentrations of compound (0.01 to 10000 nM) diluted in 50 ul of culture media. Cells were incubated at 37° C. (5% CO2) in the presence of compound for 72 hours. Metabolic viability of remaining cells was assessed by MTT (thiazolyl blue tetrazolium bromide, Sigma) assay. 20 ul of MTT reagent (10 mg/ml) was added per well and plates were incubated for 4 hours at 37° C. (5% CO2). The supernatant was then removed from the plate. The converted MTT product was solubilized with 100 uL of isopropanol and the absorbance was read at 570 nm using a Tecan spectrophotometer.
as §1

H460 xenograft = test: Tumor suppressive effect in combination with Taxotere, H460 xenograft model; type: in vivo; settings: 1 mg/kg IV, 5 on/2off; with Taxotere 30 mg/kg IP; after 3 weeks of treatment; CD-1 nude mice
Procedure: Tumor Suppressive Effect of Compound in Combination with Taxotere using an H460 Xenograft Model
(§2) Female, CD-1, nude mice received 1×10^6 H460 cells (in 100 uL of serum-free media) subcutaneously at the right flank. When average tumor size reached ˜100 mm^3 groups were formed using a balanced design based on tumor size, and treatment commenced. Tumor bearing mice were treated with either vehicle (5% D5W; 5 mL/kg, IV) or compound (1 mg/kg, IV) using a 5 on/2off treatment schedule. Taxotere (30 mg/kg, IP) was given twice, one week apart commencing one day after IAP inhibitory compounds.

HCT-116 xenograft = test: Tumor suppressive effect in combination with ETR1, HCT-116 xenograft model; type: in vivo; settings: 1 mg/kg IV, 5 on/2off; with Mapatumamab 10 mg/kg IP twice weekly; after 3 weeks of treatment; CD-1 nude mice
Procedure: Tumor Suppressive Effect of Compound in Combination with ETR1 using an HCT-116 Xenograft Model
as §2, with “1.5×10^6 HCT-116” for “1×10^6 H460”, “˜150” for “˜100”, “Mapatumamab (10” for “Taxotere (30”, “twice weekly for the duration of the experiment,” for “twice, one week apart”

[3] = test system: Rheumatoid arthritis human fibroblast-like synoviocytes (HFLS-RA); test: Human synoviocytes + Fas antibody cell viability assay (Cell Titer-Glo); type: cell-based; settings: with anti-human CD95 (Fas) antibody (300 ng/ml), 72 hrs, read-out: EC50 synoviocyctes + FAS
Procedure: Rheumatoid arthritis human fibroblast-like synoviocytes (HFLS-RA, Cell Applications Inc.) were seeded in 96-well plates at 3000 cells per well in 100 ul of complete synoviocyte growth medium (Cell Applications Inc.) one day prior to treatment. Triplicate wells of cells were treated by the addition of 50 ul of diluted compound (0.01 to 100 nM) in combination with 50 ul of anti-human CD95 (Fas) antibody (300 ng/ml; clone CH-11, Beckman Coulter/Immunotech) and incubated at 37° C. (5% CO2) for 72 hrs. Cell viability was measured by Cell Titer-Glo Luminescent Assay (Promega). Briefly, 100 ul of media was removed from wells and an equal volume of Cell Titer-Glo Reagent was added to the cells. The plates were mixed for 2 minutes on an orbital shaker and after a 10-minute incubation period at room temperature, the emitted luminescence was detected using a Tecan Infinite F200 spectrophotometer.
as §1

SMILES	EC50 [1] [nM]	EC50 [2] [nM]	tumor growth suppression relative to vehicle treated controls (H460 xenograft) [%]	tumor growth suppression relative to vehicle treated controls (HCT-116 xenograft) [%]	EC50 [3] [nM]
CN[C@@H](C)C(=O)N[C@H](C(=O)N1C[C@@H](NC(=O)c2ccc(C(=O)N[C@H]3C[C@@H](C(=O)N[C@@H]4CCCc5ccccc54)N(C(=O)[C@@H](NC(=O)[C@H](C)NC)C4CCCCC4)C3)cc2)C[C@H]1C(=O)N[C@@H]1CCCc2ccccc21)C1CCCCC1 [Compound 1]	< 10	< 10	54	59	< 10
CN[C@@H](C)C(=O)N[C@H](C(=O)N1C[C@@H](NC(=O)C2CCC(C(=O)N[C@H]3C[C@@H](C(=O)N[C@@H]4CCc5ccccc54)N(C(=O)[C@@H](NC(=O)[C@H](C)NC)C4CCCCC4)C3)CC2)C[C@H]1C(=O)N[C@@H]1CCc2ccccc21)C1CCCCC1 (stereo partly drawn) [Compound 3]	< 10	< 10	–	–	< 10
CN[C@@H](C)C(=O)N[C@H](C(=O)N1C[C@@H](NC(=O)C2CCC(C(=O)N[C@H]3C[C@@H](C(=O)NC(c4ccccc4)c4ccccc4)N(C(=O)[C@@H](NC(=O)[C@H](C)NC)C4CCCCC4)C3)CC2)C[C@H]1C(=O)NC(c1ccccc1)c1ccccc1)C1CCCCC1 (stereo partly drawn) [Compound 7]	< 10	< 10	–	–	< 10
CN[C@@H](C)C(=O)N[C@H](C(=O)N1C[C@@H](NC(=O)c2ccc(C(=O)N[C@H]3C[C@@H](C(=O)N4CCC[C@@H]4c4ccccc4)N(C(=O)[C@@H](NC(=O)[C@H](C)NC)C4CCCCC4)C3)cc2)C[C@H]1C(=O)N1CCC[C@@H]1c1ccccc1)C1CCCCC1 [Compound 30]	> 100	> 100	–	–	–
CN[C@@H](C)C(=O)N[C@H](C(=O)N1C[C@@H](NC(=O)c2ccc(C(=O)N[C@H]3C[C@@H](C(=O)N[C@@H]4CCOc5ccccc54)N(C(=O)[C@@H](NC(=O)[C@H](C)NC)C4CCCCC4)C3)cc2)C[C@H]1C(=O)N[C@@H]1CCOc2ccccc21)C1CCCCC1 [Compound 31]	< 10	< 10	–	–	–
CN[C@@H](C)C(=O)N[C@H](C(=O)N1C[C@@H](NC(=O)C2CCC(C(=O)N[C@H]3C[C@@H](C(=O)N[C@@H]4CCOc5ccccc54)N(C(=O)[C@@H](NC(=O)[C@H](C)NC)C4CCCCC4)C3)CC2)C[C@H]1C(=O)N[C@@H]1CCOc2ccccc21)C1CCCCC1 (stereo partly drawn) [Compound 32]	< 10	< 10	–	–	–
CN[C@@H](C)C(=O)N[C@H](C(=O)N1C[C@@H](NC(=O)c2ccc(C(=O)N[C@H]3C[C@@H](C(=O)N4CC[C@@H](c5ccccc5)C4)N(C(=O)[C@@H](NC(=O)[C@H](C)NC)C4CCCCC4)C3)cc2)C[C@H]1C(=O)N1CC[C@@H](c2ccccc2)C1)C1CCCCC1 [Compound 41]	10 to 100	–	–	–	10 to 100
CC[C@H](NC)C(=O)N[C@H](C(=O)N1C[C@@H](NC(=O)c2ccc(C(=O)N[C@H]3C[C@@H](C(=O)N[C@@H]4CCCc5ccccc54)N(C(=O)[C@@H](NC(=O)[C@H](CC)NC)C4CCCCC4)C3)cc2)C[C@H]1C(=O)N[C@@H]1CCCc2ccccc21)C1CCCCC1 [Compound 51]	< 10	–	–	–	< 10
